# Measured values as given in patent publication US20230089267A1, “Compositions and Methods For Reducing Immune Intolerance and Treating Autoimmune Disorders” (Lapix Therapeutics, Inc., priority 2021, published 2023).
# Counter-ions that a name gives are not always drawn.
# Assays:
# [1] = tested on: FoxP3+/CD4+ T-cells in splenocytes from naïve C57BL/6 mice; assay: In vitro dose-response, percent FoxP3+/CD4+ T-cells in murine splenocytes; assay type: cell-based; conditions: for EC50 / EC90: Mus musculus, T-cell, percent FoxP3+/CD4+ T-cells, 72 hours, 4-parameter log-logistic model fit; for mean FoxP3+/CD4+ T-cells, upper plateau, mean (SEM): high dose; for mean FoxP3+/CD4+ T-cells, upper plateau, mean (SEM) / mean FoxP3+/CD4+ T-cells, lower plateau, mean (SEM): from model fitting; for mean FoxP3+/CD4+ T-cells, lower plateau, mean (SEM): low dose
# Protocol: All animal studies were conducted under IACUC number B2020-91 and in compliance with Tufts University/Tufts Medical Center & Human Nutrition Research Center on Aging. Animals were housed four in a cage and had access to food and water ad libitum. Anti-FoxP3 and anti-CD4 for flow cytometry were obtained from eBioscience. Compounds 1-3 were formulated with 10% DMPC in PBS. PS liposomes were synthesized at a 30:70 PS:lipid molar ratio.
# Splenocytes from naïve C57BL/6 mice were stained with CFSE, seeded at 2×10^5 cells/well, and dosed with each compound from 1e^−4 μM to 3.0e^−9 μM using a log 2 dilution scheme. Cells were incubated for 72 hours before phenotyping for FoxP3+/CD4+ T-cells. Flow cytometer analysis was performed to assess changes in percent FoxP3+/CD4+ T-cells as a function of compound and dose. Concentration versus response was fitted to a 4-parameter, log-logistic model using the “dre” package in “R”. Both EC50 and EC90 were obtained by model fitting.
# Cells were observed via a microscope at the end of the incubation period. All cells looked healthy and suitable for flow cytometry analysis.
# Table 2 summarizes EC50 and EC90 values obtained from the model fitting.
# [2] = tested on: MOG35-55-induced murine EAE model; assay: Escalation treatment paradigm in MOG35-55-induced murine EAE model (Example 8); assay type: in vivo, mice
# Protocol: Compound 2 (0.03 mg/ml) was formulated with hydroxypropyl beta cyclodextrin (HPCD) 1:80 (Compound 2:HPCD) and stored at 4° C. until use. Natalizumab, an anti-α4β1 integrin antibody is a monoclonal antibody that is approved by U.S. Food and Drug Administration (FDA) for the treatment of relapsing forms of MS. […] Natalizumab was diluted in PBS to a final concentration of 15 mg/ml before dosing. DMF is a disease-modifying therapy (DMT) recommended for the treatment of active relapsing multiple sclerosis. DMF (1 g) was dissolved in 50 ml of 4% solution of METHOCEL© to give a 20 mg/ml solution of DMF. The solution was stored at 4° C. until use.
# Experimental autoimmune (allergic) encephalomyelitis (EAE) is considered to be the best non-clinical model of multiple sclerosis (MS). Over 6,000 papers have been published in scientific journals on this model. EAE is characterized by immune responses against CNS tissue and can be induced in animals by immunizing them against proteins of the CNS. In the active EAE model, mice are immunized with MOG35-55 peptide emulsified in Complete Freund's Adjuvant (CFA) by subcutaneous injection at the tail base (100 μg of […] per mouse) under anesthesia. On the day of injection (Day 0) and two days later (Day 2), mice receive an intraperitoneal injection of pertussis toxin (PT) in PBS at 200 ng/mouse/dose (0.1 mL). Symptoms typically develop in mice 9-14 days after immunization (Day 0). Daily observation and scoring of mice start on Day 7 and continue until the end of the study. Table 5 (see Example 4 above) details the expected clinical symptoms and the scoring criteria used in this study.
# This study was designed to evaluate the early sustained use of Compound 2 versus DMF in a treatment escalation paradigm (sustained use cohort), and Compound 2 versus natalizumab after DMF failure (escalation cohort). All animals in the escalation cohorts received 14 doses of DMF or Compound 2, or 3 doses of natalizumab, as per group assignment.
# Probability of disease control: Disease control was defined as a clinical score of less than 2.5. Animals in the different treatment groups were monitored after the 3:1:1 randomization. A score of 2.5 was recorded as an event and analyzed by survival analysis in GraphPad Prism 9. Animals not reaching a clinical score of 2.5 by day 14, the end of the treatment period, were assigned a score of zero for the survival analysis.
# Efficacy of Compound 2 versus DMF in early sustained use: Animals in the DMF group that reached a score of 2.5 were randomized 1:1:1, as per FIG. 5A. Animals randomized to continue DMF treatment were given the remainder of the 14 DMF doses. Animals from the first randomization that were treated with Compound 2 after disease onset continued treatment for a total of 14 doses. After the 14th dose, treatment was stopped and clinical score and overall survival were monitored.
# Efficacy of Compound 2 versus natalizumab in a treatment escalation cohort: Animals in the DMF group that reached a score of 2.5 were randomized 1:1:1, as per FIG. 5A. Animals randomized to natalizumab were dosed 100 μg/mouse IV every 3 days for 3 total doses starting the same day a score of 2.5 was recorded. Animals randomized to Compound 2 were dosed with 3 μg/mouse SC QD for 14 total doses starting on the same day a score of 2.5 was recorded.
# Overall survival: Death due to the disease was monitored in the early sustained use cohort as well as the escalation cohort. Death by disease (clinical score of 5) was recorded as an event “1,” death due to ulceration or for ex vivo analysis was recorded as “0.” Animals surviving until the end of the study were recorded “0” on day 27. Survival analysis was done in GraphPad Prism 9.
# [3] = tested on: MOG35-55-induced murine EAE model; assay: Induction/maintenance treatment paradigm in MOG35-55-induced murine EAE model (Example 9); assay type: in vivo, mice
# Protocol: Compound 2, natalizumab and DMF were prepared as described in Example 8. Table 5 (see Example 4) details the expected clinical symptoms and scoring criteria used in this study.
# This study was designed to evaluate the therapeutic effects of Compound 2 versus natalizumab in a treatment induction/maintenance paradigm (induction cohort), and Compound 2 versus DMF after natalizumab (maintenance cohort). In the induction cohorts, animals were randomized 2:1:1 natalizumab:Compound 2:control when they reached a score of 2.5, as per FIG. 6A. Animals in the natalizumab cohort were given 100 μg natalizumab/mouse every 3 days for 3 doses before being randomized to the maintenance cohort. Animals randomized into the maintenance cohort after natalizumab received maintenance doses of DMF or Compound 2 (1:1 randomization), as per their group assignment for 14 days. Animals in the Compound 2 induction cohort were dosed with 30 μg Compound 2/mouse SC QD for a maximum of 7 days, or 3 consecutive days of disease score <2.5, at which time they were placed on a maintenance dose of 3 μg/mouse SC QD for 14 days. All animals in all groups were monitored for 14 days after the last dose for disease score and survival.
# Disease control (induction therapy): Disease control was defined as maintaining a clinical score of 2.5 or less after randomization. Animals in the different treatment groups were monitored after the 2:1:1 randomization. Clinical scores were recorded daily for all animals and plotted over time. A score of >2.5 was recorded as an event and analyzed by survival analysis in GraphPad Prism 9. Animals not reaching a clinical score of 2.5 by the end of the induction period (day 7) were assigned a score of zero for the survival analysis.
# Survival (induction therapy): Death due to disease (clinical score 5) during the treatment induction period was recorded as an event “1”, animals surviving until the end of the induction period, day 7 after randomization, were censored on day 7 for the purposes of survival analysis.
# Disease control (maintenance therapy): At the end of the induction period with natalizumab, animals were randomized 1:1 to the DMF maintenance group or Compound 2 maintenance group as per FIG. 6A. Animals were dosed for 14 days, and clinical scores were monitored daily.
# Survival (maintenance therapy): Death by disease (clinical score of 5) was recorded as an event “1”, death due to ulceration or ex vivo analysis was recorded as “0”. Animals surviving until the end of the study were recorded as “0” on the last day of the study. Survival analysis was done in GraphPad Prism 9.
# [4] = tested on: passive MG model; assay: Passive myasthenia gravis model, adoptive transfer to RAG2−/− mice; assay type: in vivo; conditions: by day 10, SC daily for ten days
# Protocol: In this passive MG model in B6 mice, donor mice (n=20, aged 6-8 weeks) were immunized with complete Freund's adjuvant (CFA) and nicotinic acetylcholine receptor (AChR) emulsion weekly for four weeks. Seven days after the last immunization, splenocytes were collected, and 10^6 cells/mouse were transferred to RAG2^−/− mice. The recipient mice (n=10/group) were treated one day after adoptive transfer with prednisone (1 μg/mouse) SC daily for ten days after disease onset or Compound 2 3 μg SC daily for ten days after disease onset, or were left untreated. Minimal manifestation of disease was defined as a return to a clinical score of 1 after an exacerbation (score 2 or higher). Time to return to minimal score was logged, and the likelihood of return was plotted for untreated animals, and standard of care (SOC; prednisone)- and Compound 2-treated animals.
# [5] = tested on: MOG35-55-induced murine EAE model; assay: MOG35-55-induced murine EAE model, Compound 2 versus Compound 8 (Example 12); assay type: in vivo, mice; conditions: 3 μg/mouse/day SC, after ten days of treatment
# Protocol: Mice were immunized with 100 μg MOG35-55 emulsified with CFA and pertussis toxin, as described in Example 4. At disease onset (clinical score 1), mice were randomized into two treatment groups, and received 3 μg/mouse/day SC of either Compound 2 or Compound 8.
# [6] = maintenance after natalizumab induction
# [7] = escalation cohort after DMF failure (score 2.5), by day 14 after switching
compound,measurement,setting,value
"CCCCCC(=O)O[C@@H](COC(C)=O)CO[PH](=O)OC[C@H](N)C(=O)O (stereo partly shown) [PS, phosphatidylserine, reference compound]",EC50,[1],0.133 nM
same,EC90,[1],0.314 nM
"COC(=O)/C=C/C(=O)OC [DMF, dimethyl fumarate, reference compound]",disease course in early sustained use cohort,"[2]; 14 doses, followed to end of study","progressed at the same rate as untreated control animals, with all animals reaching a clinical score of 5 by end of the study"
same,"overall survival, early sustained use cohort",[2]; to day 27,all animals in the DMF-treated group died by day 26
same,animals that progressed to a score of 2.5,"[2]; treatment from disease onset (score 1), within 7 days of disease onset",All animals (n=30)
same,mean clinical score of animals randomized to maintenance therapy after natalizumab induction,[3]; at start of maintenance,2.5 (SD=0.4)
same,animals that progressed to clinical score 5 (death by disease),[3]; [6],3 out of 4
same,"last measured score, day 7 after initiation of maintenance",[3]; [6],4.37 (SD=1.2)
same,mortality rate in maintenance cohort,"[3]; maintenance after natalizumab induction, n=4 in each group",75%
"C[C@]12C=CC(=O)C=C1CC[C@@H]1[C@@H]2C(=O)C[C@@]2(C)[C@H]1CC[C@]2(O)C(=O)CO [prednisone, reference compound]",animals returned to minimal manifestation of disease (score 1),[4],46%
natalizumab: anti-α4β1 integrin monoclonal antibody approved by FDA for the treatment of relapsing forms of MS [reference compound],mean clinical score after switching from DMF,[2]; [7],3.6 (SD=1.6)
same,median clinical score after switching from DMF,[2]; [7],3.75
same,"animals that survived until day 27, escalation cohort",[2]; switched from DMF,6 out of 9
same,mice showing clinical score improvement and switched to maintenance before end of induction period,[3]; induction period,0/18
same,animals that survived the treatment induction period,"[3]; induction period, day 7 after randomization",11/18
same,mice that died before completing the induction therapy,[3]; induction therapy,38.8%
same,mean clinical score by day 7 of induction,"[3]; randomized at score 2.5, Compound 2 30 μg SC",3.61 (SD=1.17)
same,animals that progressed to a clinical score >2.5 during induction,"[3]; randomized at score 2.5, natalizumab 100 μg/mouse every 3 days, Compound 2 30 μg SC",12
"N[C@@H](CNC(=O)Cc1ccc(OCc2ccccc2)cc1)C(=O)O [Compound 1, (S)-2-amino-3-(2-(4-(benzyloxy)phenyl)acetamido)propanoic acid]",EC50,[1],2.06 nM
same,EC90,[1],688 nM
same,"mean FoxP3+/CD4+ T-cells, upper plateau, mean (SEM)",[1],5.18%
same,"mean FoxP3+/CD4+ T-cells, lower plateau, mean (SEM)",[1],1.47%
"N[C@@H](CNC(=O)Cc1ccc(OC(c2ccccc2)c2ccccc2)cc1)C(=O)O [Compound 3, (S)-2-amino-3-(2-(4-(benzhydryloxy)phenyl)acetamido)propanoic acid]","potency relative to PS, as measured by EC50 and EC90","[1]; EC50 and EC90, respectively",two and one orders of magnitude higher (more potent) than PS
same,EC50,[1],3.76 nM
same,EC90,[1],20.4 nM
same,"mean FoxP3+/CD4+ T-cells, upper plateau, mean (SEM)",[1],3.48%
same,"mean FoxP3+/CD4+ T-cells, lower plateau, mean (SEM)",[1],1.32%
"N[C@@H](CNC(=O)Cc1ccc(OCc2cccc3ccccc23)cn1)C(=O)O [Compound 8, (S)-2-Amino-3-(2-(5-(naphthalen-1-ylmethoxy)pyridin-2-yl)acetamido)propanoic acid]","mean clinical score, comparison of the two groups",[5],no statistical difference
